Target: T1, panel of 442 kinases (Homo sapiens, UniProt Q6XUX3)
T1 construct: purchased KINOMEscan
T1 sequence (Q6XUX3 1-929): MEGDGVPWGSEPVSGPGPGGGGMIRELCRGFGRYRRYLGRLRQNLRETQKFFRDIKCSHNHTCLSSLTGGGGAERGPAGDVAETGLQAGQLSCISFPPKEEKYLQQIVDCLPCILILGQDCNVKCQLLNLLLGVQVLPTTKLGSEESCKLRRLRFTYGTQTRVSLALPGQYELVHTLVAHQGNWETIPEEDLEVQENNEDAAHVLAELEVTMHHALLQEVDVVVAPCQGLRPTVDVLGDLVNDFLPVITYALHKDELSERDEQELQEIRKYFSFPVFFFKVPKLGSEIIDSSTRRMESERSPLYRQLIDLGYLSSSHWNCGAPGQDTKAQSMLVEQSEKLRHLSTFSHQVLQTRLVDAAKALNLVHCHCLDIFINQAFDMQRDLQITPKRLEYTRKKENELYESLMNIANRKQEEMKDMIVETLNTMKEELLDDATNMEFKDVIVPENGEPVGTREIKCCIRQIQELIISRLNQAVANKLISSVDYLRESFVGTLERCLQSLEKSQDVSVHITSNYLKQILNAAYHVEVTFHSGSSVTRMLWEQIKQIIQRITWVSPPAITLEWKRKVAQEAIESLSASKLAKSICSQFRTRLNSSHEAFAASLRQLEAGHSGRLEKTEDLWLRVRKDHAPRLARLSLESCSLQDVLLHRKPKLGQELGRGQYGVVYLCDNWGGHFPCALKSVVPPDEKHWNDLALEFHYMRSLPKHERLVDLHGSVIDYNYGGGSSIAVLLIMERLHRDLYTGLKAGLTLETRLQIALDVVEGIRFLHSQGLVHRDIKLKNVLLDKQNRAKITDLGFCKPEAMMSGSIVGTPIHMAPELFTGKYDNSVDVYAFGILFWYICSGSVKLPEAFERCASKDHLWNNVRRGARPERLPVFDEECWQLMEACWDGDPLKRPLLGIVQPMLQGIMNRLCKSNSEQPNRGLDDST
Type: binding
Conditions: Compound Concentration 10 µM
Source text: We assessed the selectivity of members of this scaffold using the KINOMEscan methodology across a near comprehensive panel of 442 kinases [[18,27]].

| Structure (SMILES) | KINOMEscan: RIPK5 |
| --- | --- |
| COc1cc(C(=O)N2CCC(N3CCN(C)CC3)CC2)ccc1Nc1ncc2c(n1)N(C1CCCC1)c1ccccc1C(=O)N2C [Compound 25, 11-cyclopentyl-2-((2-methoxy-4-(4-(4-methylpiperazin-1-yl)piperidine-1-carbonyl)phenyl)amino)-5-methyl-5H-benzo[e]pyrimido[5,4-b][1,4]diazepin-6(11H)-one] | 4.9 |
| CCOc1cc(C(=O)N2CCC(N3CCN(C)CC3)CC2)ccc1Nc1ncc2c(n1)N(C1CCCC1)c1ccccc1C(=O)N2C [Compound 26] | 16 |
| COc1cc(C(=O)N2CCC(N3CCN(C)CC3)CC2)ccc1Nc1ncc2c(n1)N1CCc3cccc(c31)C(=O)N2C [Compound 24] | 24 |
| COc1cc(C(=O)N2CCC(N3CCN(C)CC3)CC2)ccc1Nc1ncc2c(n1)N(C)c1ccccc1C(=O)N2C [15 (LRRK2-IN-1)] | 16 |

From publication PMC3914206
